Columns and labels:
HT-29 cells = assay: Annexin V-APC/7AAD cell death assay; type: cell-based, human
Description: 6 × 10^5 cells/well were grown in 6-well plates for 24 h. Cultures were treated with the corresponding amount of the selected compounds, DMSO (control), or 10 μM camptothecin (positive control). Propidium iodide (PI) was used as DNA stain dye to determine cell cycle distribution. Cells were stored at −20 °C with 70% ethanol for at least 24 h. Then, ethanol was removed, cells were washed with PBS, and stained for 30 min with 500 µL of a solution containing 0.001% triton, 0.2% w/v RNase, and 0.02% PI.
For the determination of apoptosis, APC Annexin V Apoptosis Detection Kit with 7-AAD from Biolegend® was employed following the staining procedure described by the manufacturer. Samples were analyzed by flow cytometry using a BD Accuri™ C6 Plus Flow Cytometer (Beckton, Dickinson and company, Franklin Lakes (NJ), USA).
Mounting evidence of the anticancer potential of selenium compounds can be found in the literature. […] Remarkably, these mechanisms vary depending on the selenium compound and on cell phenotype. […] Assays were conducted at different 6c concentrations ranging from 0.1 to 10 µM. Camptothecin (10 µM) was used as positive control.

[1] = system: BEAS-2B cells (lung non-malignant derived cell line); assay: MTT cell viability assay, BEAS-2B; type: cell-based; settings: Homo sapiens, 48 h, mean ± SD
Description: Cell lines were purchased from the American Type Culture Collection (ATCC). MCF-7, HTB-54, BEAS-2B and 184B5 cell lines were grown in RPMI 1640 medium (Gibco) supplemented with 10% fetal bovine serum (FBS; Gibco), 100 units/mL penicillin, and […] streptomycin (Gibco). HT-29 and HCT-116 cell lines was cultured in McCoy’s 5A (Gibco), 10% FBS, 100 units/mL penicillin, and 100 μg/mL streptomycin. Cells were maintained at 37 °C and 5% CO2. Culture medium was replaced every three days.
A cell viability assay of each compound was carried out using an MTT assay. Each selenourea was dissolved in dimethyl sulfoxide (DMSO) at a concentration of 0.01 M. Serial dilutions were prepared with non-supplemented culture medium. Cytotoxic activity of each selenourea was determined at two different concentrations (10 and 50 µM) in MCF-7, HTB-54, and HT-29 cells. In addition, selected compounds were tested at seven different concentrations (0.1, 1, 5, 10, 25, 50, 100 µM) on MCF-7, HT-29, HCT-116, HTB-54, 184B5, and BEAS-2B cells. The number of passages before defrosting the cells was 3, and they were kept under culture up to a maximum of 15.
Briefly, 1 × 10^4 cells/well were grown in 96-well plates for 24 h. Then, these cells were incubated with either DMSO (negative control) at 5 µM or a different concentration of each tested selenourea for 48 h. A volume of 20 µL of MTT was added 150 min before the termination point to measure cellular viability. After this time, culture medium was removed. The resultant formazan crystals were dissolved in 50 µL of DMSO, and absorbance was measured at 570 nm. Results are expressed as IC50, the half maximal inhibitory concentration. This value was calculated using GraphPad Prism 7 software by nonlinear curve fitting. Furthermore, the selectivity index (SI) was calculated as the ratio of the IC50 values determined for the non-malignant and the tumoral cells (IC50 (184B5)/IC50 (MCF-7) or (IC50 (BEAS-2B)/IC50 (HTB-54). Data were obtained from at least three independent experiments performed in triplicates.

M14 (melanoma) = assay: cells; type: cell-based
Text: (§1) The dose–response was also studied in the same 60 cancer cell lines, with outstanding results. […] Table 2 summarizes the GI50, TGI, and LC50 values of representative cell lines. Full data mean GI50 graphs are provided in the Supplementary Materials.

[2] = system: OVACAR-3 (ovarian cancer); assay: cells; type: cell-based
Text: as §1

UO-31 (renal cancer) = assay: cells; type: cell-based
Text: as §1

[3] = system: MDA-MB-468 (breast cancer); assay: cells; type: cell-based
Text: as §1

[4] = system: MDA-MB-231/ATCC (breast cancer); assay: cells; type: cell-based
Text: as §1

SF-593 (CNS cancer) = assay: cells; type: cell-based
Text: as §1

NCI-60 cell line panel = assay: cells; type: cell-based
Text: as §1

[5] = system: HT-29 cells (colon carcinoma); assay: MTT cell viability assay, HT-29; type: cell-based; settings: Homo sapiens, 48 h, MTT
Outline: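 Cells at 1 × 10^4/well grown 24 h, then treated 48 h with selenourea at 10 and 50 µM (selected compounds 0.1–100 µM), DMSO as negative control. MTT added 150 min before end, formazan read at 570 nm; IC50 by nonlinear fit, ≥3 independent experiments in triplicate.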

[6] = HT-29, 6c 10 µM, 24 h, 30 min preincubation

## COc1ccc(NC(=[Se])NC23CC4CC(CC(C4)C2)C3)cc1 [Compound 6c, N´-adamantyl-N-(4-methoxyphenyl)selenourea]
HT-29 cells; [6]
  cell death after pre-incubation with PI3K inhibitor wortmannin: prevented induction cell death
  number of dead cells after pre-incubation with pancaspase inhibitor z-VAD-fmk: no significant differences in the number of dead cells
HT-29 cells; HT-29, 48 h, 5 and 10 µM
  number of dead cells (7AAD positive cells): increased the number of dead cells
[1]
  IC50: 4.73 ± 0.79 µM
M14 (melanoma); Homo sapiens, M14, read-out: LC50
  CC50: 7.94 µM
M14 (melanoma); Homo sapiens, M14, NCI-60
  GI50: 1.38 µM
M14 (melanoma); M14, NCI-60
  TGI: 3.31 µM
[2]; OVACAR3, read-out: LC50
  CC50: 7.41 µM
[2]; OVACAR3, OVACAR-3, NCI-60
  GI50: 1.38 µM
[2]; OVACAR-3, NCI-60
  TGI: 3.24 µM
UO-31 (renal cancer); Homo sapiens, UO-31, read-out: LC50
  LC50 (concentration killing 50% of cells): 9.77 µM
UO-31 (renal cancer); Homo sapiens, UO-31, NCI-60
  GI50: 1.74 µM
UO-31 (renal cancer); UO-31, NCI-60
  TGI: 4.07 µM
[3]; Homo sapiens, MDA-MB-468, read-out: LC50
  CC50: 8.71 µM
[3]; Homo sapiens, MDA-MB-468, NCI-60
  GI50: 1.35 µM
[3]; MDA-MB-468, NCI-60
  TGI: 3.39 µM
[4]; Homo sapiens, MDA-MB-231, read-out: LC50
  CC50: 8.51 µM
[4]; Homo sapiens, MDA-MB-231/ATCC, NCI-60
  GI50: 1.78 µM
[4]; MDA-MB-231/ATCC, NCI-60
  TGI: 3.89 µM
SF-593 (CNS cancer); SF-593, NCI-60
  GI50: 1.91 µM
  TGI: 4.17 µM
SF-593 (CNS cancer); read-out: LC50
  CC50: 9.33 µM
NCI-60 cell line panel; average for the 60 cell lines
  GI50: 1.49 µM
  average TGI: 9.17 µM
NCI-60 cell line panel; read-out: LC50 values against 10 of the NCI60 cancer cell lines
  LC50: 4.27 to 9.33 µM
[5]; HT-29, mean ± SD, read-out: IC50 HT-29 (colon)
  IC50: 5.6 ± 1.24 µM
[5]; HT-29, 10 µM, read-out: cell viability, percentage of live cells
  viability at 10 µM: 34.6%
[5]; HT-29, 50 µM, read-out: cell viability, percentage of live cells
  viability at 50 µM: 25.7%
